target: T1, CmedPR2 (with CmedORco) (Cnaphalocrocis medinalis, UniProt A0A0U3BFF0); assay: two-electrode voltage clamp, Xenopus oocytes; format: cell-based; details: agonist 10-4 mol/L; co-expressed CmedORco; holding potential -80 mV; pH 7.5
T1 sequence (A0A0U3BFF0 1-434): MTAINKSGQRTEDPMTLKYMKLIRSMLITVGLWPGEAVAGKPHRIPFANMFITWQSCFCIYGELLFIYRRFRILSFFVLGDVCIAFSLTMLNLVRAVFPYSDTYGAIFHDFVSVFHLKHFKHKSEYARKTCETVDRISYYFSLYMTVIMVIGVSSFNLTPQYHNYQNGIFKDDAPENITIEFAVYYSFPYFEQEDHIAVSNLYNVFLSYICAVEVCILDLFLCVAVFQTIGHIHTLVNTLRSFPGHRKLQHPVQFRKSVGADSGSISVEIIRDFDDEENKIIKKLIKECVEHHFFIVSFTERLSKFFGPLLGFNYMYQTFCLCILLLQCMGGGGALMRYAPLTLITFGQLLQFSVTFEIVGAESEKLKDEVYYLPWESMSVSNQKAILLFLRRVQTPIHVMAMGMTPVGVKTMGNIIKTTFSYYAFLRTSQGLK
T1 sequence (H9XFD5 1-473 partner): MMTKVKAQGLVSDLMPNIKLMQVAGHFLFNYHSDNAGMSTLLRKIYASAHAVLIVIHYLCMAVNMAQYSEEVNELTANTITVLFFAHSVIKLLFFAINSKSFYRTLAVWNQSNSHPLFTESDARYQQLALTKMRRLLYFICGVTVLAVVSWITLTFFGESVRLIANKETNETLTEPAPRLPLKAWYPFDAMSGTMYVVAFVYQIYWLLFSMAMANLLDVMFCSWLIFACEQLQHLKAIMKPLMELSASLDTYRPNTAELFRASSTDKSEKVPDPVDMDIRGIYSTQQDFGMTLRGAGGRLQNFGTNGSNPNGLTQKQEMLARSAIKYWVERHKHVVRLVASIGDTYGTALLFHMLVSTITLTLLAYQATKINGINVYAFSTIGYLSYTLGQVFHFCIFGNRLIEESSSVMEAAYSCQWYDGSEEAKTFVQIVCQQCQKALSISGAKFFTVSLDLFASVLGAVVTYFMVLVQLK

response current [nA]	SMILES
> 140	CCCCCC/C=C\CCCCCCCC=O [Z9-16:Ald]
> 140	CCCC/C=C\CCCCCCCCCC=O [Z11-16:Ald]
106 ± 6.4	CCCC/C=C\CCCCCCCCCCCC=O [Z13-18:Ald, (Z)-13-octadecenal]
46 ± 1.6	CCCC/C=C\CCCCCCCCCCCCO [Z13-18:OH, (Z)-13-octadecen-1-ol]

Source: publication doi:10.1101/2021.05.27.445942v1 (biorxiv, 2021)
